Where a SMILES comes first, the peptide text is derived from it. The star is where a group is joined. Myristoyl = CCCCCCCCCCCCCC(=O)*
Columns and labels:
[1] = system: CD44^hiCD24^lo CSCs in MDA-MB-231 cells; experiment: FACS analysis of CD44^hiCD24^lo cancer stem cells in MDA-MB-231 cells treated with P1 analogues; format: cell-based, human; details: 50 μM peptide, 48 hours; for CD44^hiCD24^lo CSCs (%) / COI, Live Single CD44^hiCD24^lo CSCs (Cell Count): n = 1; for Average Inhibition of CSCs (%) / CD44^hiCD24^lo CSCs (%) Repeat 1 / CD44^hiCD24^lo CSCs (%) Repeat 2 / CD44^hiCD24^lo CSCs (%) Repeat 3: n = 3
Procedure: Analogues of P1 (Table 6) were designed and synthesized in accordance with the procedure of Example 5. The ability of these analogues to inhibit cancer stem cells was determined using FACS analysis on MDA-MB-231 cells, which constitutively contain approximately 90% CD44^hiCD24^lo cancer stem cells, treated with the peptides.
(§1) Non-adherent cells were removed during the washing steps.

MDA-MB-231 cells = format: cell-based, human; details: 50 μM peptide, 48 hours, n = 1
Description: as §1
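Throughout, for COI, Live Single Cells (Cell Count): live means Hoechst-negative events among single cells.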

| SMILES | Inhibition of CSCs (%) Repeat 1 [1] [%] | Inhibition of CSCs (%) Repeat 2 [1] [%] | Inhibition of CSCs (%) Repeat 3 [1] [%] | CD44^hiCD24^lo CSCs (%) [1] [%] | COI, Live Single CD44^hiCD24^lo CSCs (Cell Count) [1] | Average Inhibition of CSCs (%) [1] [%] | CD44^hiCD24^lo CSCs (%) Repeat 1 [1] [%] | CD44^hiCD24^lo CSCs (%) Repeat 2 [1] [%] | CD44^hiCD24^lo CSCs (%) Repeat 3 [1] [%] | COI (Cell Count) (MDA-MB-231 cells) | COI, Live Single Cells (Cell Count) (MDA-MB-231 cells) | COI, Single (Cell Count) (MDA-MB-231 cells) | Total Cell Count (MDA-MB-231 cells) |
| --- | --- | --- | --- | --- | --- | --- | --- | --- | --- | --- | --- | --- | --- |
| CCCCCCCCCCCCCC(=O)N[C@@H](CCC(=O)O)C(=O)N[C@H](C(=O)N[C@@H](Cc1ccccc1)C(=O)N[C@H](C(=O)N[C@@H](Cc1ccccc1)C(=O)N[C@@H](CCCNC(=N)N)C(=O)N[C@@H](CC(C)C)C(=O)N[C@@H](CCCNC(=N)N)C(=O)N[C@@H](CCCCN)C(=O)NCC(=O)N[C@@H](CCCNC(=N)N)C(=O)N[C@@H](CCSC)C(=O)N[C@@H](CCSC)C(=O)N[C@@H](CC(=O)O)C(=O)N[C@H](C(=O)N[C@@H](CCCCN)C(=O)N[C@@H](CCCCN)C(N)=O)C(C)C)[C@@H](C)CC)[C@@H](C)O [Peptide 2853802, Myristoyl-ETFIFRLRKGRMMDVKK-NH2] (Myristoyl-ETFIFRLRKGRMMDVKK-NH2) | 42.88 | 46.07 | 49.94 | 48.71 | 3133 | 46.30 | 51.19 | 48.38 | 44.92 | 7612 | 6432 | 7095 | 9672 |
| CCCCCCCCCCCCCC(=O)N[C@@H](CCCCN)C(=O)N[C@H](C(=O)N[C@@H](Cc1ccccc1)C(=O)N[C@H](C(=O)N[C@@H](Cc1ccccc1)C(=O)N[C@@H](CCCNC(=N)N)C(=O)N[C@@H](CC(C)C)C(=O)N[C@@H](CCCNC(=N)N)C(=O)N[C@@H](CCCCN)C(=O)NCC(=O)N[C@@H](CCCNC(=N)N)C(=O)N[C@@H](CCSC)C(=O)N[C@@H](CCSC)C(=O)N[C@@H](CC(=O)O)C(=O)N[C@H](C(=O)N[C@@H](CCCCN)C(=O)N[C@@H](CCCCN)C(N)=O)C(C)C)[C@@H](C)CC)[C@@H](C)O [Peptide 2853803, Myristoyl-KTFIFRLRKGRMMDVKK-NH2] (Myristoyl-KTFIFRLRKGRMMDVKK-NH2) | 27.90 | 27.33 | 38.43 | 60.36 | 402 | 31.22 | 64.62 | 65.20 | 55.25 | 741 | 666 | 702 | 1115 |
| CCCCCCCCCCCCCC(=O)N[C@@H](CC(C)C)C(=O)N[C@@H](CCC(=O)O)C(=O)N[C@@H](Cc1ccccc1)C(=O)N[C@H](C(=O)N[C@@H](Cc1ccccc1)C(=O)N[C@@H](CCCNC(=N)N)C(=O)N[C@@H](CC(C)C)C(=O)N[C@@H](CCCNC(=N)N)C(=O)N[C@@H](CCCCN)C(=O)NCC(=O)N[C@@H](CCCNC(=N)N)C(=O)N[C@@H](CCSC)C(=O)N[C@@H](CCSC)C(=O)N[C@@H](CC(=O)O)C(=O)N[C@H](C(=O)N[C@@H](CCCCN)C(=O)N[C@@H](CCCCN)C(N)=O)C(C)C)[C@@H](C)CC [Peptide 2853804, Myristoyl-LEFIFRLRKGRMMDVKK-NH2] (Myristoyl-LEFIFRLRKGRMMDVKK-NH2) | 85.86 | 80.73 | 86.58 | 13.77 | 19 | 84.39 | 12.67 | 17.29 | 12.05 | 360 | 138 | 203 | 1384 |
| CCCCCCCCCCCCCC(=O)N[C@@H](CC(C)C)C(=O)N[C@@H](CC(C)C)C(=O)N[C@@H](Cc1ccccc1)C(=O)N[C@H](C(=O)N[C@@H](Cc1ccccc1)C(=O)N[C@@H](CCCNC(=N)N)C(=O)N[C@@H](CC(C)C)C(=O)N[C@@H](CCCNC(=N)N)C(=O)N[C@@H](CCCCN)C(=O)NCC(=O)N[C@@H](CCCNC(=N)N)C(=O)N[C@@H](CCSC)C(=O)N[C@@H](CCSC)C(=O)N[C@@H](CC(=O)O)C(=O)N[C@H](C(=O)N[C@@H](CCCCN)C(=O)N[C@@H](CCCCN)C(N)=O)C(C)C)[C@@H](C)CC [Peptide 2853806, Myristoyl-LLFIFRLRKGRMMDVKK-NH2] (Myristoyl-LLFIFRLRKGRMMDVKK-NH2) | 4.36 | 9.44 | 10.85 | 91.86 | 3361 | 8.22 | 85.71 | 81.25 | 80.00 | 3997 | 3659 | 3696 | 4893 |
| CCCCCCCCCCCCCC(=O)N[C@@H](CC(C)C)C(=O)N[C@H](C(=O)N[C@@H](CCC(=O)O)C(=O)N[C@H](C(=O)N[C@@H](Cc1ccccc1)C(=O)N[C@@H](CCCNC(=N)N)C(=O)N[C@@H](CC(C)C)C(=O)N[C@@H](CCCNC(=N)N)C(=O)N[C@@H](CCCCN)C(=O)NCC(=O)N[C@@H](CCCNC(=N)N)C(=O)N[C@@H](CCSC)C(=O)N[C@@H](CCSC)C(=O)N[C@@H](CC(=O)O)C(=O)N[C@H](C(=O)N[C@@H](CCCCN)C(=O)N[C@@H](CCCCN)C(N)=O)C(C)C)[C@@H](C)CC)[C@@H](C)O [Peptide 2853807, Myristoyl-LTEIFRLRKGRMMDVKK-NH2] (Myristoyl-LTEIFRLRKGRMMDVKK-NH2) | 84.07 | 81.60 | 86.81 | 11.31 | 19 | 84.16 | 14.28 | 16.51 | 11.84 | 690 | 168 | 439 | 3558 |
| CCCCCCCCCCCCCC(=O)N[C@@H](CC(C)C)C(=O)N[C@H](C(=O)N[C@@H](CCCCN)C(=O)N[C@H](C(=O)N[C@@H](Cc1ccccc1)C(=O)N[C@@H](CCCNC(=N)N)C(=O)N[C@@H](CC(C)C)C(=O)N[C@@H](CCCNC(=N)N)C(=O)N[C@@H](CCCCN)C(=O)NCC(=O)N[C@@H](CCCNC(=N)N)C(=O)N[C@@H](CCSC)C(=O)N[C@@H](CCSC)C(=O)N[C@@H](CC(=O)O)C(=O)N[C@H](C(=O)N[C@@H](CCCCN)C(=O)N[C@@H](CCCCN)C(N)=O)C(C)C)[C@@H](C)CC)[C@@H](C)O [Peptide 2853808, Myristoyl-LTKIFRLRKGRMMDVKK-NH2] (Myristoyl-LTKIFRLRKGRMMDVKK-NH2) | 87.54 | 84.31 | 84.48 | 10.74 | 26 | 85.44 | 11.17 | 14.07 | 13.92 | 323 | 242 | 279 | 1192 |
| CCCCCCCCCCCCCC(=O)N[C@@H](CC(C)C)C(=O)N[C@H](C(=O)N[C@H](C(=O)N[C@H](C(=O)N[C@@H](Cc1ccccc1)C(=O)N[C@@H](CCCNC(=N)N)C(=O)N[C@@H](CC(C)C)C(=O)N[C@@H](CCCNC(=N)N)C(=O)N[C@@H](CCCCN)C(=O)NCC(=O)N[C@@H](CCCNC(=N)N)C(=O)N[C@@H](CCSC)C(=O)N[C@@H](CCSC)C(=O)N[C@@H](CC(=O)O)C(=O)N[C@H](C(=O)N[C@@H](CCCCN)C(=O)N[C@@H](CCCCN)C(N)=O)C(C)C)[C@@H](C)CC)C(C)C)[C@@H](C)O [Peptide 2853809, Myristoyl-LTVIFRLRKGRMMDVKK-NH2] (Myristoyl-LTVIFRLRKGRMMDVKK-NH2) | 49.62 | 53.48 | 60.55 | 35.61 | 537 | 54.55 | 45.15 | 41.73 | 35.40 | 1736 | 1508 | 1560 | 3548 |
| CCCCCCCCCCCCCC(=O)N[C@@H](CC(C)C)C(=O)N[C@H](C(=O)N[C@@H](Cc1ccccc1)C(=O)N[C@@H](CCC(=O)O)C(=O)N[C@@H](Cc1ccccc1)C(=O)N[C@@H](CCCNC(=N)N)C(=O)N[C@@H](CC(C)C)C(=O)N[C@@H](CCCNC(=N)N)C(=O)N[C@@H](CCCCN)C(=O)NCC(=O)N[C@@H](CCCNC(=N)N)C(=O)N[C@@H](CCSC)C(=O)N[C@@H](CCSC)C(=O)N[C@@H](CC(=O)O)C(=O)N[C@H](C(=O)N[C@@H](CCCCN)C(=O)N[C@@H](CCCCN)C(N)=O)C(C)C)[C@@H](C)O [Peptide 2853810, Myristoyl-LTFEFRLRKGRMMDVKK-NH2] (Myristoyl-LTFEFRLRKGRMMDVKK-NH2) | 87.14 | 87.82 | 83.75 | 13.58 | 74 | 86.23 | 11.53 | 10.93 | 14.58 | 778 | 545 | 613 | 3451 |

Source: patent publication US20200339691A1, “PROTEINACEOUS MOLECULES AND USES THEREFOR” (priority 2018, published 2020)
